{"source": "paper PMC5960717", "about": "(Frontiers in Microbiology, 2018)", "key": {"ScAlt1 [1]": {"target": "T1, ScAlt1 (Saccharomyces cerevisiae, UniProt P52893)", "T1 construct": "gene ALT1; N-terminal His-tag (pET-28a), E. coli Rosetta 2 (DE3); theoretical monomer 61 kDa, SEC 147 kDa, dimer", "T1 sequence (P52893 81-592)": "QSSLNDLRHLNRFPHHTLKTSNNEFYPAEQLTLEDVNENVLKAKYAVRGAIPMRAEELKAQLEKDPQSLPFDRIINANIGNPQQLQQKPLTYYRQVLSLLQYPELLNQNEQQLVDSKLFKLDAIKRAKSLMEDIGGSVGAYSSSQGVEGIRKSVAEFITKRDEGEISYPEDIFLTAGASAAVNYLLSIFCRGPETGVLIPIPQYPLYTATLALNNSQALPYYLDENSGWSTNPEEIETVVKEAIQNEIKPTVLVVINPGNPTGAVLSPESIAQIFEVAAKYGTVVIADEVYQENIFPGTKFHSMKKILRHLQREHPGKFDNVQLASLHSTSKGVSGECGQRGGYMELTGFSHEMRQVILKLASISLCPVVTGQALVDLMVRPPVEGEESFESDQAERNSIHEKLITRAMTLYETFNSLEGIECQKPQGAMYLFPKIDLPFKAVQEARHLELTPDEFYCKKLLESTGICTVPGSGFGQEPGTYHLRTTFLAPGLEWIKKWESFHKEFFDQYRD", "assay": "UV-visible shift, external Schiff base ([…] nm)", "format": "binding", "details": "50 mM KH2PO4, 4 mM MgCl2, PLP, covalent"}, "ScAlt1 [2]": {"target": "T1, ScAlt1", "assay": "UV-visible absorption of Schiff base ([…]-335 and […] nm), NaBH4 reduction", "format": "binding", "details": "covalent (reversible internal Schiff base, enolimine and ketoenamine); 50 mM K2HPO4, 4 mM MgCl2, pH 7.5, 100 μM PLP"}, "ScAlt2": {"target": "T2, ScAlt2 (Saccharomyces cerevisiae, UniProt P52892)", "T2 construct": "gene ALT2; N-terminal His-tag (pET-28a), E. coli Rosetta 2 (DE3), 4°C expression; forward primer ATGACAATGACACACCAACAGG (MTMTHQQ); theoretical monomer 58 kDa, SEC 127 kDa, dimer", "T2 sequence (P52892 1-507)": "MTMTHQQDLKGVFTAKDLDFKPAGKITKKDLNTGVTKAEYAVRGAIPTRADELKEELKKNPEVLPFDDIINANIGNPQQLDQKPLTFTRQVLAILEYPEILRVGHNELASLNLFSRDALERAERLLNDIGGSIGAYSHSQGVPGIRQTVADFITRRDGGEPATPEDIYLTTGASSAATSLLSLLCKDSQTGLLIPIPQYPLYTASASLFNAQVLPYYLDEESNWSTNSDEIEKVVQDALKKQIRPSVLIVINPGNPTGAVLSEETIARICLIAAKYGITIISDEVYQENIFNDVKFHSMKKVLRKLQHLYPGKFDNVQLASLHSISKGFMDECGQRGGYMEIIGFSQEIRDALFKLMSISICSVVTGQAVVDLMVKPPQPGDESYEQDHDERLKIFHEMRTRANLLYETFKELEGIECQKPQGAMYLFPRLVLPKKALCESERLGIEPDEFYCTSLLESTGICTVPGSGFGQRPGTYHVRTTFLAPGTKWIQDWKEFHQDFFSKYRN", "assay": "UV-visible absorption of Schiff base ([…] nm), NaBH4 reduction", "format": "binding", "details": "covalent (reversible internal Schiff base, ketoenamine); 50 mM K2HPO4, 4 mM MgCl2, pH 7.5, 100 μM PLP"}, "ScAlt1 [3]": {"target": "T1, ScAlt1", "assay": "intrinsic fluorescence titration ([…] nm)", "format": "binding"}, "purified protein [4]": {"substrate": "O=C(O)CCC(=O)C(=O)O", "assay": "purified protein", "format": "biochemical, Saccharomyces cerevisiae", "details": "varied alanine 2-15 mM and α-ketoglutarate 0.05-10 mM, 40 μM PLP, pH 7.5, 25°C, ping-pong, Ka here = Michaelis constant, co-substrate alanine"}, "purified protein [5]": {"substrate": "C[C@H](N)C(=O)O", "assay": "purified protein", "details": "varied alanine 2-15 mM and α-ketoglutarate 0.05-10 mM, 40 μM PLP, pH 7.5, 25°C, ping-pong, Ka here = Michaelis constant"}, "[6]": {"target": "the molecule itself", "assay": "SEC; Superose 6 10/300 GL on an Akta FPLC; mobile phase 50 mM K2HPO4, 4 mM Mg2Cl, pH 7.5; calibrated with Bio-Rad molecular weight standards"}, "[7]": {"details": "1 μl of 81 mM stock added to 10 μl protein"}}, "data": [{"molecule": "N[C@@H](CCC(=O)O)C(=O)O", "note": "[glutamate]", "values": [{"measurement": "UV-visible shift, external Schiff base (325 nm)", "setting": "ScAlt1 [1]; [7]", "result": "ScAlt1 could form external Schiff base with glutamate, serine, cysteine, histidine, and aspartic acid"}]}, {"molecule": "N[C@@H](CS)C(=O)O", "note": "[cysteine]", "values": [{"measurement": "UV-visible shift, external Schiff base (325 nm)", "setting": "ScAlt1 [1]; 1 μl of 238 mM stock added to 10 μl protein", "result": "ScAlt1 could form external Schiff base with glutamate, serine, cysteine, histidine, and aspartic acid"}]}, {"molecule": "N[C@@H](Cc1cnc[nH]1)C(=O)O", "note": "[histidine]", "values": [{"measurement": "UV-visible shift, external Schiff base (325 nm)", "setting": "ScAlt1 [1]; 1 μl of 20 mM stock added to 10 μl protein", "result": "ScAlt1 could form external Schiff base with glutamate, serine, cysteine, histidine, and aspartic acid"}]}, {"molecule": "Cc1ncc(COP(=O)(O)O)c(C=O)c1O", "note": "[PLP]", "values": [{"measurement": "UV-visible absorption of Schiff base (330-335 and 420 nm), NaBH4 reduction", "setting": "ScAlt1 [2]", "result": "both, ScAlt1 and ScAlt2 have PLP attached through a Schiff base"}, {"measurement": "UV-visible absorption of Schiff base (420 nm), NaBH4 reduction", "setting": "ScAlt2", "result": "both, ScAlt1 and ScAlt2 have PLP attached through a Schiff base"}]}, {"molecule": "C[C@H](N)C(=O)O", "note": "[alanine]", "values": [{"measurement": "Kd", "setting": "ScAlt1 [3]", "result": "1000 ± 100", "unit": "µM"}]}, {"molecule": "N[C@@H](CO)C(=O)O", "note": "[serine]", "values": [{"measurement": "UV-visible shift, external Schiff base (325 nm)", "setting": "ScAlt1 [1]; 1 μl of 23 mM stock added to 10 μl protein", "result": "ScAlt1 could form external Schiff base with glutamate, serine, cysteine, histidine, and aspartic acid"}]}, {"molecule": "N[C@@H](CC(=O)O)C(=O)O", "note": "[aspartic acid]", "values": [{"measurement": "UV-visible shift, external Schiff base (325 nm)", "setting": "ScAlt1 [1]; [7]", "result": "ScAlt1 could form external Schiff base with glutamate, serine, cysteine, histidine, and aspartic acid"}]}, {"molecule": "ScAlt1 (Saccharomyces cerevisiae S288C) (protein, N-terminal His-tag (pET-28a), E. coli Rosetta 2 (DE3); theoretical monomer 61 kDa, SEC 147 kDa, dimer) QSSLNDLRHLNRFPHHTLKTSNNEFYPAEQLTLEDVNENVLKAKYAVRGAIPMRAEELKAQLEKDPQSLPFDRIINANIGNPQQLQQKPLTYYRQVLSLLQYPELLNQNEQQLVDSKLFKLDAIKRAKSLMEDIGGSVGAYSSSQGVEGIRKSVAEFITKRDEGEISYPEDIFLTAGASAAVNYLLSIFCRGPETGVLIPIPQYPLYTATLALNNSQALPYYLDENSGWSTNPEEIETVVKEAIQNEIKPTVLVVINPGNPTGAVLSPESIAQIFEVAAKYGTVVIADEVYQENIFPGTKFHSMKKILRHLQREHPGKFDNVQLASLHSTSKGVSGECGQRGGYMELTGFSHEMRQVILKLASISLCPVVTGQALVDLMVRPPVEGEESFESDQAERNSIHEKLITRAMTLYETFNSLEGIECQKPQGAMYLFPKIDLPFKAVQEARHLELTPDEFYCKKLLESTGICTVPGSGFGQEPGTYHLRTTFLAPGLEWIKKWESFHKEFFDQYRD", "values": [{"measurement": "Km", "setting": "purified protein [4]", "result": "0.67 ( ± 0.06) mM"}, {"measurement": "kcat", "setting": "purified protein [4]", "result": 698, "unit": "s⁻¹"}, {"measurement": "Km", "setting": "purified protein [5]", "result": "10.39 ( ± 1.12) mM"}, {"measurement": "kcat", "setting": "purified protein [5]", "result": 698, "unit": "s⁻¹"}]}, {"molecule": "ScAlt1 (Saccharomyces cerevisiae alanine transaminase), recombinant, without the mitochondrial localization sequence (enzyme, S. cerevisiae, UniProt P52893 65-592, looked up, ScAlt1, alanine transaminase of S. cerevisiae, amplified from genomic DNA of strain CLA1; no residue limits are stated; the forward primer (CATATGCAATCTTCGCTAAACGACCTGC) places the start at Met-QSSLNDL; the reverse primer appears to lie after the stop codon; theoretical monomer mass printed as 61 kDa; The start of the construct can be worked out from the printed forward primer …) SSSWIVAQNHRRSLSGQSSLNDLRHLNRFPHHTLKTSNNEFYPAEQLTLEDVNENVLKAKYAVRGAIPMRAEELKAQLEKDPQSLPFDRIINANIGNPQQLQQKPLTYYRQVLSLLQYPELLNQNEQQLVDSKLFKLDAIKRAKSLMEDIGGSVGAYSSSQGVEGIRKSVAEFITKRDEGEISYPEDIFLTAGASAAVNYLLSIFCRGPETGVLIPIPQYPLYTATLALNNSQALPYYLDENSGWSTNPEEIETVVKEAIQNEIKPTVLVVINPGNPTGAVLSPESIAQIFEVAAKYGTVVIADEVYQENIFPGTKFHSMKKILRHLQREHPGKFDNVQLASLHSTSKGVSGECGQRGGYMELTGFSHEMRQVILKLASISLCPVVTGQALVDLMVRPPVEGEESFESDQAERNSIHEKLITRAMTLYETFNSLEGIECQKPQGAMYLFPKIDLPFKAVQEARHLELTPDEFYCKKLLESTGICTVPGSGFGQEPGTYHLRTTFLAPGLEWIKKWESFHKEFFDQYRD", "values": [{"measurement": "stoichiometry N", "setting": "[6]", "result": 2}]}, {"molecule": "ScAlt2 (Saccharomyces cerevisiae presumed alanine transaminase paralogue), recombinant (enzyme, S. cerevisiae, UniProt P52892 1-507, looked up, ScAlt2 of S. cerevisiae, amplified from genomic DNA of strain CLA1; the forward primer starts at ATGACAATGACACACCAACAGG (MTMTHQQ) and the reverse primer holds the stop codon (TCA ATT ACG ATA ...); theoretical monomer mass printed as 58 kDa; source: E. coli Rosetta 2 (DE3), pET-28a(+), purified (Ni-NTA)) MTMTHQQDLKGVFTAKDLDFKPAGKITKKDLNTGVTKAEYAVRGAIPTRADELKEELKKNPEVLPFDDIINANIGNPQQLDQKPLTFTRQVLAILEYPEILRVGHNELASLNLFSRDALERAERLLNDIGGSIGAYSHSQGVPGIRQTVADFITRRDGGEPATPEDIYLTTGASSAATSLLSLLCKDSQTGLLIPIPQYPLYTASASLFNAQVLPYYLDEESNWSTNSDEIEKVVQDALKKQIRPSVLIVINPGNPTGAVLSEETIARICLIAAKYGITIISDEVYQENIFNDVKFHSMKKVLRKLQHLYPGKFDNVQLASLHSISKGFMDECGQRGGYMEIIGFSQEIRDALFKLMSISICSVVTGQAVVDLMVKPPQPGDESYEQDHDERLKIFHEMRTRANLLYETFKELEGIECQKPQGAMYLFPRLVLPKKALCESERLGIEPDEFYCTSLLESTGICTVPGSGFGQRPGTYHVRTTFLAPGTKWIQDWKEFHQDFFSKYRN", "values": [{"measurement": "stoichiometry N", "setting": "[6]", "result": 2}]}]}
